From PubChem BioAssay (NCI) come the findings set out here.

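Growth conditions: 96-well plates. Treatment: test compound, 48 hours, 5 concentrations. Analysis: linear interpolation between bracketing concentrations; unreached endpoints set to highest concentration. TGI is the concentration that stops growth completely.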 Where a SMILES comes first, the peptide text is derived from it.

Common to all, as to assay: growth of human tumour cells (NCI), 48 h
Assay [1] concerns MALME-3M melanoma.
Assay [2] deals with IGROV1 ovarian.
The test system of assay [3] is HOP-92 NSCLC.
For assay [4], the system named is SK-MEL-2 melanoma.
In assay [5] the test system is U251 CNS.
Assay [6] relates to BT-549 breast.
Assay [7] concerns HS 578T breast.
Assay [8] deals with SR leukemia.
Assay [9] deals with NCI-H23 lung.
Assay [10] relates to ACHN renal.
The subject of assay [11] is HCT-15 colon.
In assay [12] the test system is MOLT-4 leukemia.
Assay [13] concerns OVCAR-5 ovarian.
Assay [14] deals with CCRF-CEM leukemia.
In assay [15] the test system is MCF7 breast.
Assay [16] has as its system SK-MEL-28 melanoma.
The subject of assay [17] is SN12C renal.
Assay [18] relates to MDA-MB-435.
For assay [19], the system named is RPMI-8226 leukemia.
In assay [20] the test system is T-47D breast.

As for `Cn1c(=O)n2c(-c3ccccc3)c(-c3ccccc3)n2c1=O`, the TGI in assay [1], in [2], in assay [3], in assay [4], in [5] and in [6] was over 100 µM in each case. Further, the TGI in assay [7], in assay [8], in [9], in assay [10], in assay [11] and in assay [12] was over 100 µM in each case. For the same compound, the TGI in assay [13], in assay [14], in assay [15], in [16] and in assay [17] was over 100 µM throughout.

For `CC(C)(O)CO/N=C1\C(c2c(O)[nH]c3ccccc23)=Nc2ccccc21`, the TGI in [1] is over 60.6 µM; in [2], 13.9 µM; in assay [3], over 91.6 µM; in assay [4] it was 3.2 µM; in assay [5] it was over 68.4 µM; in [18], over 42.3 µM. Besides, the TGI was 28.6 µM in [6]; over 31.6 µM in assay [19]; over 100 µM in assay [7]; over 100 µM in assay [8]; 12.7 µM in [9]; 8.01 µM in assay [10]. The TGI is 30.7 µM in assay [11]; over 43.1 µM in [12]; 9.3 µM in assay [13]; 6.54 µM in assay [14]; 7.16 µM in [15]; over 46.2 µM in assay [16]. The TGI in assay [17] was over 80.1 µM.

On to `COc1cc2c(cc1OC)-c1c(oc3cc(OC4OC(CO)C(O)C(O)C4O)c(OC)cc3c1=O)C(O)O2` (stereo unspecified), for which the TGI in [1], in assay [2], in assay [3], in assay [4], in [5] and in [18] was over 100 µM in each case. Also, the TGI in [6], in assay [19], in [7], in [9], in [10] and in assay [11] was over 100 µM throughout. Moreover, the TGI in [13], in assay [14], in assay [16] and in assay [17] was over 100 µM each time.

In the case of `CSc1nc2c(c(=O)[nH]1)N=C(c1ccc(Cl)cc1)CC(c1ccccc1)N2` (stereo unspecified), the TGI in assay [1] stood at 42.8 µM; in assay [2] it was 29.5 µM; in assay [3] it was 38.7 µM; in [4], 31.7 µM; in [5], 39.3 µM; in assay [18] it was 38.3 µM. Besides, the TGI was 45.4 µM in [6]; 40.1 µM in assay [19]; over 100 µM in [8]; 30 µM in assay [9]; 29 µM in [10]; 61.8 µM in assay [12]. Besides, the TGI in assay [13] came to 34.2 µM; in assay [14], 37.4 µM; in assay [15] it was 33.2 µM; in [16], 32.4 µM; in assay [17] it was 30 µM.

Regarding `N#C/C(C(=S)Nc1ccccc1)=C(/N)N1CCCC1`, the TGI in [1], in assay [2], in assay [3], in assay [4], in assay [5] and in assay [18] was over 100 µM each time. The TGI in assay [19], in assay [7], in [8], in assay [9], in assay [10] and in [11] was over 100 µM in each case. For the same compound, the TGI in assay [12], in assay [13], in [14], in [15], in [16] and in assay [17] was over 100 µM each time.

Turning to `COCCN(CCOC)C(=O)COc1c2cc(C(C)(C)C)cc1Cc1cc(C(C)(C)C)cc(c1OCC(=O)N(CCOC)CCOC)Cc1cc(C(C)(C)C)cc(c1OCC(=O)N(CCOC)CCOC)Cc1cc(C(C)(C)C)cc(c1OCC(=O)N(CCOC)CCOC)Cc1cc(C(C)(C)C)cc(c1OCC(=O)N(CCOC)CCOC)C2`, the TGI in assay [1] worked out at 16.9 µM; in assay [2], 10.1 µM; in assay [20], 19.5 µM; in assay [4], 3.19 µM; in assay [5], 2.05 µM; in assay [18] it was 10.7 µM. Also, the TGI in [8] amounted to 3.63 µM; in assay [9], 4.19 µM; in assay [10] it was 12.6 µM; in [11], 11.8 µM; in [13], 18.2 µM; in assay [15], 6.42 µM. Further, the TGI in assay [16] is 18.6 µM; in assay [17] it was 11.4 µM.

As for `CN(C)CCNC1=CC(=O)c2nc3ccccc3c3ccnc1c23`, the TGI turned out to be 16.2 µM in assay [1]; 14.8 µM in assay [2]; 60.9 µM in assay [3]; 20.7 µM in assay [4]; 25.5 µM in [5]; 20 µM in [18]. Moreover, the TGI in assay [6] is 21.4 µM; in [19], 55.5 µM; in assay [7] it was 24.5 µM; in assay [8] it was 9.05 µM; in [9] it was 18.9 µM; in assay [10], 15 µM. Moreover, the TGI stood at 20.3 µM in assay [11]; 13.6 µM in assay [12]; 34.1 µM in assay [13]; 21.3 µM in [14]; 16.3 µM in [15]; 23.5 µM in assay [16]. Further, the TGI in [17] turned out to be 20.3 µM.

As to `CCOC(=O)N/N=C(\Cc1ccc([N+](=O)[O-])cc1)OCC`, the TGI in assay [2], in assay [3], in [4], in [5], in [18] and in assay [6] was over 100 µM each time. Further, the TGI in [19], in [8], in [9], in assay [10], in assay [11] and in [12] was over 100 µM throughout. In addition, the TGI in assay [13], in assay [14], in assay [15] and in assay [17] was over 100 µM in each case.

As for `C[C@@H](CO)C1=CC(C#C[Si](C)(C)C)N(C(=O)Oc2ccccc2)c2ccccc21` (stereo partly specified), the TGI in assay [2] worked out at 36.4 µM; in [3], 24.6 µM; in assay [20], 51.1 µM; in [4] it was 35.3 µM; in assay [5] it was 35.8 µM; in [18], 15.5 µM. Moreover, the TGI in assay [19] is 90.4 µM; in assay [7] it was 47 µM; in [8], over 100 µM; in [9], 23.1 µM; in assay [10], 42.1 µM; in [11], 21.7 µM. Also, the TGI in assay [12] was over 100 µM; in [13], 57.1 µM; in assay [14] it was 72.6 µM; in [16] it was 36.3 µM; in assay [17], 30.9 µM.

With `C=C(Br)C(C)(Br)CCC(Br)C(C)(C)Br` (stereo unspecified), the TGI in [1] is 81.8 µM; in assay [2] it was 39 µM; in assay [3] it was 40.6 µM; in assay [4], 55.7 µM; in [5], 38.4 µM; in [19] it was 58.2 µM. Further, the TGI was 54.7 µM in assay [8]; over 100 µM in [9]; over 100 µM in assay [10]; over 100 µM in assay [11]; 94.2 µM in [12]; over 100 µM in assay [13]. In addition, the values for the TGI in assay [14], in assay [16] and in assay [17] were 63.5 µM, 46.3 µM and 52.4 µM, respectively.

In the case of `Cc1c(NC(=O)c2cc([N+](=O)[O-])cc([N+](=O)[O-])c2)c(=O)n(-c2ccccc2)n1C`, the TGI in assay [1], in assay [2], in assay [3], in [4], in assay [5] and in assay [18] was over 100 µM throughout. Also, the TGI in assay [6], in assay [19], in assay [7], in [8], in [9] and in [11] was over 100 µM in each case. In addition, the TGI in assay [12], in assay [14], in assay [15], in assay [16] and in [17] was over 100 µM in each case.

Regarding `COC(=O)c1ccc(COC(=O)N2C=CCC2C(=O)O)cc1` (stereo unspecified), the TGI in assay [1], in [2], in assay [3], in [4], in assay [5] and in assay [18] was over 100 µM in each case. The TGI in assay [6], in assay [19], in assay [7], in assay [8], in assay [9] and in assay [10] was over 100 µM throughout. Also, the TGI in assay [11], in [12], in [13], in assay [15], in assay [16] and in assay [17] was over 100 µM each time.

For the compound `CC(C)n1c(=O)[nH]n(-c2ccccc2)c1=O`, the TGI in assay [1], in [2], in [3], in assay [4], in [5] and in [18] was over 100 µM each time. The TGI in [19], in assay [7], in [8], in assay [9], in [10] and in assay [11] was over 100 µM each time. Also, the TGI in assay [12], in assay [13], in assay [14], in assay [15], in assay [16] and in [17] was over 100 µM each time.

`CNC(=O)CNC(=O)C(NC(=O)CNC(=O)C1CCCN1C(=O)C(C)NC(=O)C(NC(C)=O)C(C)C)C(C)C` (stereo unspecified) (Ac-VAPGVG-NHMe; configuration not given here): the TGI in assay [1], in assay [2], in assay [3], in assay [20], in assay [4] and in assay [5] was over 100 µM each time. For the same compound, the TGI in assay [18], in [19], in [8], in assay [9], in assay [10] and in assay [11] was over 100 µM each time. For the same compound, the TGI in assay [12], in assay [13], in assay [14], in [15], in assay [16] and in assay [17] was over 100 µM throughout.

For the compound `Cc1nc2c(O)cc3c4c(n(Cc5ccccc5)c3c2nc1C)C(=O)CCC4`, the TGI in assay [1] was over 100 µM; in assay [3], 74 µM; in assay [4], 50.1 µM; in [5] it was 64 µM; in [18], over 100 µM; in [19], over 100 µM. The TGI in [7], in [8], in [9], in assay [10], in assay [11] and in assay [12] was over 100 µM each time. The TGI in assay [13] is over 100 µM; in assay [14], over 100 µM; in [15], over 100 µM; in [16] it was 76.2 µM; in [17], over 100 µM.
